Results: BindingDB's records for patent WO2025049746 (Eikon Therapeutics, 2025)

Experiments:
[1] = biological target: T1, Bifunctional 3'-5' exonuclease/ATP-dependent helicase WRN [480-1251] (UniProt Q14191); assay: Biochemical Activity Assays
T1 construct: 480-1251
Experimental: The pure fractions were pooled and desalted/buffer exchanged into storage buffer using a HiTrap desalting column. […] First, WRN alone was pre-incubated with DMSO or compound of interest for 15 minutes. To initiate the reaction, ATP, dsDNA substrate, and ssDNA competitor (ssDNA_comp: […]) were added and incubated at room temperature for 20 minutes at which point DNA unwinding activity was monitored by measuring Cy3 fluorescence. After obtaining the reading, the ATPase activity was measured using the ADP-Glo Kinase Assay following the manufacturers recommended protocol. […] Compounds were assayed in a 10-point dose response in duplicate at a 1% DMSO final assay concentration.

[2] = biological target: Bifunctional 3'-5' exonuclease/ATP-dependent helicase WRN (Homo sapiens, UniProt Q14191); assay: ADP-Glo Kinase Assay
Experimental: ATPase activity was measured using the ADP-Glo Kinase Assay following the manufacturers recommended protocol.

Chain of Bifunctional 3'-5' exonuclease/ATP-dependent helicase WRN (Q14191 whole entry): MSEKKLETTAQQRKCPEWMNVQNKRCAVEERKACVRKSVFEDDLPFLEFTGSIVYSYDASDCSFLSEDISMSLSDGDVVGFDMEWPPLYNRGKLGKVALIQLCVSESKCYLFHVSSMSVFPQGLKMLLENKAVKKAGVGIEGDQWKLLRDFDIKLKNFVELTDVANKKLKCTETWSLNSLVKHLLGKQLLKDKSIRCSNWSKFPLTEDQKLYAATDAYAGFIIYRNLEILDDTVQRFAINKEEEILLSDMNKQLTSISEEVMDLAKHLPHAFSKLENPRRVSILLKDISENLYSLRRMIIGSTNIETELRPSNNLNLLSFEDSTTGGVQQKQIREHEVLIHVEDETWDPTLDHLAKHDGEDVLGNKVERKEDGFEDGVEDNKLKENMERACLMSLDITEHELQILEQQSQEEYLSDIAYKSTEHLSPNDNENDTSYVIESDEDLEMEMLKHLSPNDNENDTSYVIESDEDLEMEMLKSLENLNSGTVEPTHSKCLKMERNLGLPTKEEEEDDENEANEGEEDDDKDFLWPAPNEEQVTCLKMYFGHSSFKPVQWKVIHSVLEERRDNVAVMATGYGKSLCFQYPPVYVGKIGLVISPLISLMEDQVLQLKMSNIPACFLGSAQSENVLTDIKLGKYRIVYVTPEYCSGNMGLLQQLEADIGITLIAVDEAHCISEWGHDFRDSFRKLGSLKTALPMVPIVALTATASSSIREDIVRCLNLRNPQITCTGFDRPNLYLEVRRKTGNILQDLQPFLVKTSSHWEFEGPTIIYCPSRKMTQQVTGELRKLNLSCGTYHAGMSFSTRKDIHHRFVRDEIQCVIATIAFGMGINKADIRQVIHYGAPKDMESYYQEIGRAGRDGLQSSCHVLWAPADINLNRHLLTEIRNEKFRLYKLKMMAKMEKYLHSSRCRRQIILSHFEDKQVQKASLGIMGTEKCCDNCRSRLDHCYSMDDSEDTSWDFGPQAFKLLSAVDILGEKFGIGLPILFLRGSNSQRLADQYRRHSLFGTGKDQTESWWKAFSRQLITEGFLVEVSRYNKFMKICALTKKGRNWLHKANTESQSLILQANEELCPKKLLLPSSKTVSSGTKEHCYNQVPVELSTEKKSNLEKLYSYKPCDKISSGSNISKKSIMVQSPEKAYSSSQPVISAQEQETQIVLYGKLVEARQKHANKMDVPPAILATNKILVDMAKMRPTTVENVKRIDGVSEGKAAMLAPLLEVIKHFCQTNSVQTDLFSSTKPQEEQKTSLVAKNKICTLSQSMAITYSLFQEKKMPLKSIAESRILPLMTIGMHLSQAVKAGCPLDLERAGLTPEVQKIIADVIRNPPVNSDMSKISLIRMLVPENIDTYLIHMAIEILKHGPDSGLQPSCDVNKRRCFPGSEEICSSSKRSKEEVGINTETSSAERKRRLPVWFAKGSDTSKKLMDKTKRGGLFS
T1 sequence (Q14191 480-1251): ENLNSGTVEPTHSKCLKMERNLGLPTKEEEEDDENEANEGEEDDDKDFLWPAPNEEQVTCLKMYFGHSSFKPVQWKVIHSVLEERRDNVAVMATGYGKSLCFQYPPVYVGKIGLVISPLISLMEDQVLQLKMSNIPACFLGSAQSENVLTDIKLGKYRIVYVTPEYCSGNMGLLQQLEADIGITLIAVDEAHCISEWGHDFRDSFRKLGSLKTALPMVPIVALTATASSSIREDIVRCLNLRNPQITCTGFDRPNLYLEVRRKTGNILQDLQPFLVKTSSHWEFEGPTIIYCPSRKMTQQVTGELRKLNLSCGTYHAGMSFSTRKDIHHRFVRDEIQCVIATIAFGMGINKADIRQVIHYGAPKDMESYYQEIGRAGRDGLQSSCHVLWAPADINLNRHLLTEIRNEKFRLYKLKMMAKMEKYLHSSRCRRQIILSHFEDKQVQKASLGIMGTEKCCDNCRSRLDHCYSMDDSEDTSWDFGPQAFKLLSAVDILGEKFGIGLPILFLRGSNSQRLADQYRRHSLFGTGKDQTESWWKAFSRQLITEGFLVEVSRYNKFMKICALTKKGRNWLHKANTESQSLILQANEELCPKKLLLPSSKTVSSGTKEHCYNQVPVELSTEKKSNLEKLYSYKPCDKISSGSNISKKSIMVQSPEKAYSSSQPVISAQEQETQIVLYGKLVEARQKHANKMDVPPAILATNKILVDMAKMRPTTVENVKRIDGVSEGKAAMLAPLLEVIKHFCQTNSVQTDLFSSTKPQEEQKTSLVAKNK

| Compound | IC50 [1] [µM] | IC50 [2] [µM] |
| --- | --- | --- |
| CCc1c(N2CCN(C(=O)c3ncnc(C)c3O)CC2)c(=O)n2nc(-c3cnn4c3COCC4)nc2n1CC(=O)Nc1ccc(C(F)(F)F)cc1Cl [WO2025049746, Example 20] | 0.0536 | 0.0886 |
| CCc1c(N2CCN(C(=O)c3nc4c(cc3O)CCOC4)CC2)c(=O)n2nc(-c3ccc4c(c3)COC4)nc2n1CC(=O)Nc1ccc(C(F)(F)F)cc1Cl [WO2025049746, Example 441] | 0.057 | 0.068 |
| CCc1c(N2CCN(C(=O)c3ncnc(C)c3O)CC2)c(=O)n2nc(-c3ccc4ncccc4c3)nc2n1CC(=O)Nc1ccc(C(F)(F)F)cc1Cl [WO2025049746, Example 264] | 0.024 | 0.023 |
| CCc1c(N2CCN(C(=O)c3nccc4nc[nH]c34)CC2)c(=O)n2nc(N3C[C@H]4COC[C@H]4C3)nc2n1CC(=O)Nc1ccc(C(F)(F)F)cc1Cl [WO2025049746, Example 95] | 0.0163 | 0.0201 |
| CCc1c(N2CCN(C(=O)c3ncccc3N)CC2)c(=O)n2nc(C3=CCOCC3)nc2n1CC(=O)Nc1ccc(C(F)(F)F)cc1Cl [WO2025049746, Example 34] | 0.0285 | 0.0451 |
| CCc1c(N2CCN(C(=O)c3ncnc(C)c3O)CC2)c(=O)n2nc(-c3ccc4cn(C)nc4c3)nc2n1CC(=O)Nc1ccc(C(F)(F)F)cc1Cl [WO2025049746, Example 177] | 0.03 | 0.031 |
| CCc1c(N2CCN(C(=O)c3ncnc(C)c3O)CC2)c(=O)n2nc(-c3ccc4c(c3)CCO4)nc2n1CC(=O)Nc1ccc(SC(F)(F)F)cc1Cl [WO2025049746, Example 410] | 0.032 | 0.041 |
| CCc1c(N2CCCN(C(=O)c3ncnc(C)c3O)CC2)c(=O)n2nc(C3=CCOCC3)nc2n1CC(=O)Nc1ccc(C(F)(F)F)cc1Cl [WO2025049746, Example 340] | 0.093 | 0.166 |
| CCc1c(N2CCN(C(=O)c3ncnc(C)c3O)CC2)c(=O)n2nc(-c3cc(C)c4nn(C)cc4c3)nc2n1CC(=O)Nc1ccc(C(F)(F)F)cc1Cl [WO2025049746, Example 299] | 0.031 | 0.029 |
| CCc1c(N2CCN(C(=O)c3ncnc(C)c3O)CC2)c(=O)n2nc(-c3ccc4c(c3)COC4)nc2n1CC(=O)Nc1c(Cl)cc(C(F)(F)F)c2scnc12 [WO2025049746, Example 424] | 0.037 | 0.047 |
| CCc1c(N2CCN(C(=O)c3ncnc(C)c3O)CC2)c(=O)n2nc(-c3ccc4c(c3)COC4)nc2n1CC(=O)Nc1c(Cl)cc(C(F)(F)F)c2c1CC2 [WO2025049746, Example 384] | 0.029 | 0.035 |
| CCc1c(N2CCN(C(=O)c3ncnc(C)c3O)CC2)c(=O)n2nc(-c3ccc4c(c3)C(=O)NC4)nc2n1CC(=O)Nc1ccc(C(F)(F)F)cc1Cl [WO2025049746, Example 188] | 0.03 | 0.052 |
| CCc1c(N2CCN(C(=O)c3ncnc(C)c3O)CC2)c(=O)n2nc(-c3ccc4nn(C)c(F)c4c3)nc2n1CC(=O)Nc1ccc(C(F)(F)F)cc1Cl [WO2025049746, Example 290] | 0.031 | 0.029 |
| CCc1c(N2CCN(C(=O)c3ncnc(C)c3O)CC2)c(=O)n2nc(-c3cnn4c3CCCC4)nc2n1CC(=O)Nc1ccc(C(F)(F)F)cc1Cl [WO2025049746, Example 167] | 0.041 | 0.06 |
| CCc1c(N2CCN(C(=O)c3ncnc(C)c3O)CC2)c(=O)n2nc(-c3cnc4sccc4c3)nc2n1CC(=O)Nc1ccc(C(F)(F)F)cc1Cl [WO2025049746, Example 310] | 0.027 | 0.026 |
| Cc1ncnc(C(=O)N2CCN(c3c4n(c5nc(-c6ccc7c(c6)COC7(C)C)nn5c3=O)[C@H](C(=O)Nc3ccc(C(F)(F)F)cc3Cl)C[C@H]4C)[C@H]3CC[C@@H]32)c1O [WO2025049746, Example 467] | 9.57 | > 29.7 |

| Compound | IC50 [1] [µM] | IC50 [2] [µM] |
| --- | --- | --- |
| CCc1c(N2CCN(C(=O)c3nc4n(c(=O)c3O)CCOC4)CC2)c(=O)n2nc(N(C)C)nc2n1CC(=O)Nc1ccc(C(F)(F)F)c2c1CC2 [WO2025049746, Example 109] | 0.0147 | 0.0134 |
| CCc1c(N2CCN(C(=O)c3ncnc(C)c3O)CC2)c(=O)n2nc(-c3cccc4c3CCO4)nc2n1CC(=O)Nc1ccc(C(F)(F)F)cc1Cl [WO2025049746, Example 348] | 0.062 | 0.086 |
| CCc1c(N2CCN(C(=O)c3ncnc(C)c3O)CC2)c(=O)n2nc(-c3ccn4cncc4c3)nc2n1CC(=O)Nc1ccc(C(F)(F)F)cc1Cl [WO2025049746, Example 219] | 0.019 | 0.019 |
| CCc1c(N2CCN(C(=O)c3ncnc(C)c3O)CC2)c(=O)n2nc(-c3cc4c(cc3C)COC4)nc2n1CC(=O)Nc1ccc(C(F)(F)F)cc1Cl [WO2025049746, Example 203] | 0.056 | 0.079 |
| CCc1c(N2CCN(C(=O)C3CCCC3O)CC2)c(=O)n2nc(C3=CCOCC3)nc2n1CC(=O)Nc1ccc(C(F)(F)F)cc1Cl (configuration not stated) [WO2025049746, Example 58] | 0.187 | 1.26 |
| CCc1c(N2CCN(C(=O)c3ncnc(C)c3O)CC2)c(=O)n2nc(-c3ccc4c(c3)CCN4C)nc2n1CC(=O)Nc1ccc(C(F)(F)F)cc1Cl [WO2025049746, Example 199] | 0.032 | 0.04 |
| CCc1c(N2CCN(C(=O)c3ncnc(C)c3O)CC2)c(=O)n2nc(-c3cccc4c3cnn4C)nc2n1CC(=O)Nc1ccc(C(F)(F)F)cc1Cl [WO2025049746, Example 22] | 0.0294 | 0.0371 |
| CCc1c(N2CCN(C(=O)c3ccccc3NS(=O)(=O)C3CC3)CC2)c(=O)n2nc(-c3ccc4c(c3)OCO4)nc2n1CC(=O)Nc1ccc(C(F)(F)F)c2c1CC2 [WO2025049746, Example 111] | 0.251 | 0.308 |
| CCc1c(N2CCN(C(=O)c3ncnc(C)c3O)CC2)c(=O)n2nc(-c3cncc4c3cnn4C)nc2n1CC(=O)Nc1ccc(C(F)(F)F)cc1Cl [WO2025049746, Example 24] | 0.0329 | 0.0429 |
| CCc1c(N2CCN(C(=O)c3ncnc(C)c3O)CC2)c(=O)n2nc(-c3ccc4c(c3)OC(F)(F)O4)nc2n1CC(=O)Nc1ccc(C(F)(F)F)cc1Cl [WO2025049746, Example 179] | 0.059 | 0.077 |
| CCc1c(N2CCN(C(=O)c3ncnc(C)c3O)CC2)c(=O)n2nc(C3=CCOCC3)nc2n1CC(=O)Nc1ccc(OC(F)F)cc1Cl [WO2025049746, Example 370] | 0.161 | 0.163 |
| CCc1c(N2CCN(C(=O)c3ncnc(C)c3O)CC2)c(=O)n2nc(-c3cccc4c3COC(C)(C)C4)nc2n1CC(=O)Nc1ccc(C(F)(F)F)cc1Cl [WO2025049746, Example 222] | 0.045 | 0.04 |
| CCc1c(N2CCN(C(=O)c3ncnc(C)c3O)CC2)c(=O)n2nc(-c3cnn4c3CCC4)nc2n1CC(=O)Nc1ccc(C(F)(F)F)cc1Cl [WO2025049746, Example 166] | 0.014 | 0.016 |
| CCc1c(N2CCN(C(=O)c3ncnc(C)c3O)CC2)c(=O)n2nc(-c3cc4c(cc3F)C3(CN(C)C3)OC4)nc2n1CC(=O)Nc1ccc(C(F)(F)F)cc1Cl [WO2025049746, Example 273] | 0.048 | 0.043 |
| CCc1c(N2CCN(C(=O)c3ncnc(C)c3O)CC2)c(=O)n2nc(C3=CCOCC3)nc2n1CC(=O)NC12COC(C(F)(F)F)(C1)C2 [WO2025049746, Example 70] | 0.748 | 0.852 |
